According to patent US7598241B2, “Carboxamide derivatives and their use as factor Xa inhibitors” (Merck Patent GmbH, priority 2003, dated 2009):

How the values were obtained:
factor Xa = factor Xa (Homo sapiens, UniProt P00742); experiment: Factor Xa inhibition (FXa-IC50); type: biochemical
From the text: The inhibition of factor Xa by the compounds according to the invention and the measurement of the anticoagulant and antithrombotic activity can be determined by conventional in-vitro or in-vivo methods. A suitable method is described, for example, by J. Hauptmann et al. in Thrombosis and Haemostasis 1990, 63, 220-223.
The inhibition of factor Xa can be measured, for example, by the method of T. Hara et al. in Thromb. Haemostas. 1994, 71, 314-319.

TF/FVIIa = TF/FVIIa (Homo sapiens, UniProt P08709); experiment: TF/FVIIa inhibition (TF/FVIIa-IC50); type: biochemical
From the text: Coagulation factor VIIa initiates the extrinsic part of the coagulation cascade after binding to tissue factor and contributes to the activation of factor X to give factor Xa. Inhibition of factor VIIa thus prevents the formation of factor Xa and thus subsequent thrombin formation. • The inhibition of factor VIIa by the compounds according to the invention and the measurement of the anticoagulant and antithrombotic activity can be determined by conventional in-vitro or in-vivo methods. A conventional method for the measurement of the inhibition of factor VIIa is described, for example, by H. F. Ronning et al. in Thrombosis Research 1996, 84, 73-81.

Chain of TF/FVIIa (P08709 213-466 limits assumed): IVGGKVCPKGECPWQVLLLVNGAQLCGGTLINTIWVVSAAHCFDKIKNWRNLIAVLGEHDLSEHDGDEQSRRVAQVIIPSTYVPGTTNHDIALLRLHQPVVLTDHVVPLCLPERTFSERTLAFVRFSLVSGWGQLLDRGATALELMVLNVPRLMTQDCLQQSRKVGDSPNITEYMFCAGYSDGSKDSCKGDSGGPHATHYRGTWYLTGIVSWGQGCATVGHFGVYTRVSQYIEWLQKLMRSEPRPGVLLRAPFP
Chain of TF/FVIIa (P08709 61-212 partner limits assumed): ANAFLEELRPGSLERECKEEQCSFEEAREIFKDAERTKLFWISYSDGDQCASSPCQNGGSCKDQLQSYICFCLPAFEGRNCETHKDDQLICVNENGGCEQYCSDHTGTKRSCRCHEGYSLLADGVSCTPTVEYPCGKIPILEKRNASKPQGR
Chain of TF/FVIIa (P13726 33-295 partner): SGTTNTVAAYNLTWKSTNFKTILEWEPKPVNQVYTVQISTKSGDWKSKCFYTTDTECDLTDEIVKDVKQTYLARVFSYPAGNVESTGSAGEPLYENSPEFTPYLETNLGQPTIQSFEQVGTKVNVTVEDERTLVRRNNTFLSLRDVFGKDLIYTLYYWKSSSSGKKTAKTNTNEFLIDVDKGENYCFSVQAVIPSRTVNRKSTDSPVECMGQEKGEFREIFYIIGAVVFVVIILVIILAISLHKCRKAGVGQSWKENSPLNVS
Chain of factor Xa (P00742 235-488 limits assumed): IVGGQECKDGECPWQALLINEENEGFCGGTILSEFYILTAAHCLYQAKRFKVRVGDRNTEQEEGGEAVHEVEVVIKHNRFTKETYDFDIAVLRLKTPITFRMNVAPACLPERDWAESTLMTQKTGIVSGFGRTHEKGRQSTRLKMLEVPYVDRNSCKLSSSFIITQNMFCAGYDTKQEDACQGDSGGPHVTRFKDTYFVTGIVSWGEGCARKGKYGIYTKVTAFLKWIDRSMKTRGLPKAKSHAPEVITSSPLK
Chain of factor Xa (P00742 41-179 partner limits assumed): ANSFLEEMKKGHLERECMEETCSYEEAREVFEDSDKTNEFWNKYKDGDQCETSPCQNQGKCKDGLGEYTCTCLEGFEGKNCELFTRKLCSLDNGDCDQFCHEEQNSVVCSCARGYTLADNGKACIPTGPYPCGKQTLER

| IC50 (factor Xa) | IC50 (TF/FVIIa) | Compound |
| --- | --- | --- |
| 6.4 nM | 12 nM | CS(=O)(=O)C[C@H](NC(=O)Nc1ccc(Cl)cc1)C(=O)Nc1ccc(-n2ccccc2=O)cc1 [Compound 2A, (R)-2-[3-(4-chlorophenyl)ureido]-N-[4-(2-oxo-2H-pyridin-1-yl)phenyl]-3-methanesulfonylpropionamide] |
| 42 nM | 43 nM | CS(=O)(=O)CCC(NC(=O)Nc1ccc(Cl)cc1)C(=O)Nc1ccc(-n2ccncc2=O)cc1 (stereo not shown) [Compound 1B, 2-[3-(4-chlorophenyl)ureido]-N-[4-(2-oxo-2H-pyrazin-1-yl)phenyl]-4-methanesulfonylbutyramide] |
| 28 nM | 28 nM | CS(=O)(=O)CCC(NC(=O)Nc1ccc(Cl)cc1)C(=O)Nc1ccc(-n2ccccc2=O)cc1 (stereo not shown) [Compound 1A, 2-[3-(4-chlorophenyl)ureido]-N-[4-(2-oxo-2H-pyridin-1-yl)phenyl]-4-methanesulfonylbutyramide] |

| Compound | IC50 (factor Xa) | IC50 (TF/FVIIa) |
| --- | --- | --- |
| COP(=O)(C[C@@H](NC(=O)Nc1ccc(Cl)cc1)C(=O)Nc1ccc(N2CCOCC2=O)cc1)OC [Compound 1D, (S)-2-[3-(4-chlorophenyl)ureido]-N-[4-(3-oxomorpholin-4-yl)phenyl]-3-(dimethoxyphosphoryl)propionamide] | 85 nM |  |
